From ChEMBL document CHEMBL1201862, “PubChem BioAssay data set” (2004)
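Assay format: 96-well plates, 48-hour exposure. The concentration for 50% growth inhibition is given as GI50.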 The source made the active and inactive calls. No stated cut-off is given here; in the data, active = GI50 up to about 1.1 µM and inactive = higher.

How the values were obtained:
Assay in all cases: growth of human tumour cells (NCI), 48 h
[1] = system: A498
[2] = system: CCRF-CEM
[3] = system: HCT-116
[4] = system: HT-29
[5] = system: K562
[6] = system: LOX IMVI
[7] = system: MCF7
[8] = system: MDA-MB-231
[9] = system: MDA-MB-435
[10] = system: Malme-3M
[11] = system: NCI-H522
[12] = system: OVCAR-4
[13] = system: OVCAR-5
[14] = system: SF-295
[15] = system: SF-539
[16] = system: SK-MEL-28
[17] = system: SK-OV-3
[18] = system: SNB-75
[19] = system: U-251
[20] = system: MOLT-4

Measured: GI50

O=[N+]([O-])/C=C/c1ccc2ccccc2c1
inactive: [1] 13 µM | [2] 4.61 µM | [3] 2.73 µM | [4] 2.53 µM | [5] 3.78 µM | [6] 1.87 µM | [7] 1.86 µM | [8] 3.82 µM | [9] 2.04 µM | [10] 15.6 µM | [11] 9.68 µM | [12] 13.3 µM | [13] 3.52 µM | [14] 3.99 µM | [15] 3.04 µM | [16] 2.23 µM | [17] 2.57 µM | [18] 2 µM | [19] 1.92 µM

CCOC(=O)/C(=C\c1cccc(C)c1)C(C)=O
inactive: [1] 13.4 µM | [3] 16.7 µM | [4] 17.9 µM | [5] 28.4 µM | [6] 13.6 µM | [7] 13.2 µM | [8] 12.4 µM | [9] 16.3 µM | [20] 10.2 µM | [10] 14.1 µM | [11] 10 µM | [12] 19.2 µM | [13] 10.9 µM | [14] 23.4 µM | [15] 16.7 µM | [16] 12.6 µM | [17] 25.8 µM | [18] 4.94 µM | [19] 13.1 µM

CCCC(=O)NC1CCc2cc(OC)c(OC)c(OC)c2-c2ccc(OC)c(=O)cc21 (centres undefined)
inactive: [18] 1.82 µM
active: [1] 0.00807 µM | [2] 0.00028 µM | [3] 0.000361 µM | [4] 0.00036 µM | [5] 0.00041 µM | [6] 0.00045 µM | [7] 0.000257 µM | [8] 0.0004 µM | [9] 0.000296 µM | [20] 0.000493 µM | [10] 0.000764 µM | [11] 0.000442 µM | [13] 0.00312 µM | [14] 0.000512 µM | [15] 0.000296 µM | [16] 0.01 µM | [17] 0.00454 µM | [19] 0.000344 µM

c1ccc2c(Cc3c[nH]c4ccccc34)c[nH]c2c1 [ARUNDINE]
inactive: [1] 38.8 µM | [2] 12.8 µM | [3] 17.1 µM | [4] 15.2 µM | [5] 19.6 µM | [6] 20.3 µM | [7] > 100 µM | [8] 14.3 µM | [9] 15.6 µM | [20] 13.5 µM | [10] 31.3 µM | [11] 30.5 µM | [12] 17.8 µM | [13] 14.2 µM | [14] 19.9 µM | [16] 36 µM | [17] 23.7 µM | [18] 17.4 µM | [19] 17.7 µM

COC(=O)/C=C(C)/C=C\COC1CCCCO1 (centres undefined)
inactive: [1] > 100 µM | [2] > 100 µM | [3] > 100 µM | [5] > 100 µM | [6] > 100 µM | [7] > 100 µM | [8] > 100 µM | [9] > 100 µM | [20] > 100 µM | [10] > 100 µM | [11] > 100 µM | [12] > 100 µM | [13] > 100 µM | [14] > 100 µM | [16] > 100 µM | [17] > 100 µM | [18] > 100 µM | [19] > 100 µM

O=[N+]([O-])/C(C(Cl)=C(Cl)Cl)=C1\Nc2ccc([N+](=O)[O-])cc2N1
inactive: [1] > 100 µM | [2] 27.4 µM | [3] 46.5 µM | [5] > 100 µM | [7] > 100 µM | [8] 45.2 µM | [9] > 100 µM | [20] 45.1 µM | [10] 63.5 µM | [11] 13.5 µM | [12] > 100 µM | [13] > 100 µM | [14] > 100 µM | [16] > 100 µM | [17] > 100 µM | [18] > 100 µM | [19] 60 µM

C[P+](c1ccccc1)(c1ccc(Cl)cc1)c1ccc(Cl)cc1
inactive: [1] 27.5 µM | [3] 6.93 µM | [4] 4.44 µM | [5] 11.2 µM | [6] 11.1 µM | [7] 26.9 µM | [8] 13.2 µM | [9] 5.45 µM | [10] 4.19 µM | [11] 12.9 µM | [12] 13.2 µM | [13] 18.2 µM | [15] 19.8 µM | [16] 10 µM | [17] 37.2 µM | [18] 14.4 µM | [19] 16.3 µM

CCC(=O)C(CCN1CCC(N2C(=O)C(CCC#N)c3ccccc32)CC1)(c1ccccc1)c1ccccc1 (centres undefined)
inactive: [1] 23.2 µM | [3] 4.9 µM | [4] 3.4 µM | [5] 3.8 µM | [6] 12.8 µM | [7] 11.5 µM | [8] 7.36 µM | [9] 4.85 µM | [20] 4.56 µM | [10] 12.1 µM | [11] 12.7 µM | [13] 22.3 µM | [14] 13.3 µM | [15] 18.3 µM | [16] 18.7 µM | [17] 15.5 µM | [18] 12.9 µM | [19] 14.6 µM

Cc1ccc2c(c1)C=CC(C#N)N2C(=O)Oc1ccccc1 (centres undefined)
inactive: [1] 20.6 µM | [2] 17.2 µM | [3] 37.9 µM | [4] 18.7 µM | [5] 23.7 µM | [6] 20.6 µM | [7] 19.7 µM | [8] 38.9 µM | [9] 14.5 µM | [20] 19.6 µM | [10] 33 µM | [11] 16.3 µM | [12] 24.7 µM | [13] 61.4 µM | [15] 60.7 µM | [16] 77.8 µM | [18] 40.6 µM | [19] 23.7 µM

CO[C@@]12C[C@@H](CNC(=O)c3cc(Br)c[nH]3)O[C@@H]1NC(=O)N2
inactive: [1] > 100 µM | [2] > 100 µM | [3] > 100 µM | [4] > 100 µM | [6] > 100 µM | [7] > 100 µM | [8] > 100 µM | [9] > 100 µM | [10] > 100 µM | [11] > 100 µM | [12] > 100 µM | [13] > 100 µM | [14] > 100 µM | [15] > 100 µM | [16] > 100 µM | [17] > 100 µM | [18] > 100 µM | [19] > 100 µM

Nn1c(CNc2ccc(-c3nnc(Nc4ccc(Cl)cc4)n3N)cc2)nnc1Nc1ccc(Cl)cc1
inactive: [1] > 100 µM | [3] 37.1 µM | [4] 44.2 µM | [5] 67.9 µM | [7] 61.1 µM | [8] > 100 µM | [9] > 100 µM | [20] 55.7 µM | [10] > 100 µM | [11] 75.5 µM | [12] > 100 µM | [13] > 100 µM | [14] > 100 µM | [16] > 100 µM | [17] > 100 µM | [18] > 100 µM | [19] > 100 µM
